System: not listed separately
Experiment: Ratio of EC50 for CRISPR PAICS knock out mouse LM2 cells to EC50 for mouse wild type LM2 cells
Type: functional
Conditions: not given

Structure (SMILES) | Ratio EC50
CCNCCCn1cc(-c2ccc(Cl)c(NC(=O)c3coc(N)n3)c2)cn1 | >80
CN(C)CCCOc1ncc(-c2ccc(Cl)c(NC(=O)c3coc(N)n3)c2)s1 | >30
CN1CCN(c2ccc(-c3ccc(Cl)c(NC(=O)c4coc(N)n4)c3)cn2)CC1 | >10

System: MDA-MB-231
Experiment: Antiproliferative activity against human MDA-MB-231 cells after 72 hrs by Celltiter-glo luminescence assay
Type: functional, cell-based
Conditions: MDA-MB-231, 72 h

EC50 [nM] | Structure (SMILES)
250 to 500 | CN(C)CCCOc1nc(-c2ccc(Cl)c(NC(=O)c3coc(N)n3)c2)cs1

System: not listed separately
Experiment: Antiproliferative activity against mouse LM2 cells after 72 hrs by Celltiter-glo luminescence assay
Type: functional, cell-based
Conditions: not given

Structure (SMILES) | EC50 [nM]
CNC1CCN(Cc2ncc(-c3ccc(Cl)c(NC(=O)c4coc(N)n4)c3)s2)CC1 | < 100
Nc1nc(C(=O)Nc2cc(-c3cnn(C4CCCNC4)c3)ccc2Cl)co1 (configuration not stated) | 100 to 250
Nc1nc(C(=O)Nc2cc(-c3ccc(OC4CCNC4)nc3)ccc2Cl)co1 (configuration not stated) | 250 to 500
Nc1nc(C(=O)Nc2cc(-c3ccc(CN4CCNCC4)cc3)ccc2Cl)co1 | 250 to 500
CSc1ccc(-c2cnc(OCCCN(C)C)s2)cc1NC(=O)c1coc(N)n1 | 100 to 250
CN1CCC(n2cc(-c3ccc(Cl)c(NC(=O)c4coc(N)n4)c3)cn2)CC1 | 100 to 250
CC(C)NCCCOc1ccc(-c2ccc(Cl)c(NC(=O)c3coc(N)n3)c2)cn1 | 100 to 250
CN1CC(n2cc(-c3ccc(Cl)c(NC(=O)c4coc(N)n4)c3)cn2)C1 | 100 to 250
CN(C)CCCOc1nc(-c2ccc(Cl)c(NC(=O)c3coc(N)n3)c2)cs1 | 250 to 500
CN1CCN(Cc2ccc(-c3ccc(Cl)c(NC(=O)c4coc(N)n4)c3)cn2)CC1 | 250 to 500
Nc1nc(C(=O)Nc2cc(-c3cnc(CN4CCNCC4)s3)ccc2Cl)co1 | 100 to 250
CN(C)CCOc1ccc(-c2ccc(Cl)c(NC(=O)c3coc(N)n3)c2)cc1 | 100 to 250
CCNCCCn1cc(-c2ccc(Cl)c(NC(=O)c3coc(N)n3)c2)cn1 | < 100
Nc1nc(C(=O)Nc2cc(-c3cnn(CCCN4CCNCC4)c3)ccc2Cl)co1 | 100 to 250
CN1CCN(c2ncc(-c3ccc(Cl)c(NC(=O)c4coc(N)n4)c3)s2)CC1 | 100 to 250
Nc1nc(C(=O)Nc2cc(-c3cnn(C4CCNCC4)c3)ccc2Cl)co1 | 250 to 500
CCN(CC)CCCOc1ncc(-c2ccc(Cl)c(NC(=O)c3coc(N)n3)c2)s1 | < 100
CN(C)CCOc1ncc(-c2ccc(Cl)c(NC(=O)c3coc(N)n3)c2)cn1 | 250 to 500
Nc1nc(C(=O)Nc2cc(-c3ccn(C4CCNCC4)n3)ccc2Cl)co1 | 250 to 500
CN1CCN(CCn2cc(-c3ccc(Cl)c(NC(=O)c4coc(N)n4)c3)cn2)CC1 | 250 to 500
CCNCCn1cc(-c2ccc(Cl)c(NC(=O)c3coc(N)n3)c2)cn1 | 100 to 250

Structure (SMILES) | EC50 [nM]
CSc1ccc(-c2nc(CN3CCNCC3)cs2)cc1NC(=O)c1coc(N)n1 | < 100
CNC1CCCN(Cc2csc(-c3ccc(Cl)c(NC(=O)c4coc(N)n4)c3)n2)C1 (configuration not stated) | < 100
CSc1ccc(-c2ccc(OCCCN(C)C)nc2)cc1NC(=O)c1coc(N)n1 | 250 to 500
Nc1nc(C(=O)Nc2cc(-c3nc(CN4CCNCC4)cs3)ccc2Cl)co1 | < 100
Nc1nc(C(=O)Nc2cc(-c3ccc(CN[C@H]4CC[C@H](N)CC4)nc3)ccc2Cl)co1 | 250 to 500
CN(C)CCCc1ncc(-c2ccc(Cl)c(NC(=O)c3coc(N)n3)c2)s1 | < 100
CN1CCC(NC(=O)Cn2cc(-c3ccc(Cl)c(NC(=O)c4coc(N)n4)c3)cn2)CC1 | 250 to 500
Nc1nc(C(=O)Nc2cc(-c3ccc(OCC4CCCNC4)nc3)ccc2Cl)co1 (configuration not stated) | 250 to 500
CN(C)CCCOc1ccc(-c2ccc(Cl)c(NC(=O)c3coc(N)n3)c2)nc1 | 250 to 500
CN(C)CCOc1ccc(-c2ccc(Cl)c(NC(=O)c3coc(N)n3)c2)cn1 | 250 to 500
CNCCCOc1ccc(-c2ccc(Cl)c(NC(=O)c3coc(N)n3)c2)cn1 | 100 to 250
CN(C)CCC(=O)N1CC(Cn2cc(-c3ccc(Cl)c(NC(=O)c4coc(N)n4)c3)cn2)C1 | 250 to 500
Nc1nc(C(=O)Nc2cc(-c3cnc(OC4CCNCC4)s3)ccc2Cl)co1 | < 100
CN(C)CCC(=O)N1CCC(n2cc(-c3ccc(Cl)c(NC(=O)c4coc(N)n4)c3)cn2)CC1 | 250 to 500
Nc1nc(C(=O)Nc2cc(-c3cnc(OC4CCNCC4)nc3)ccc2Cl)co1 | 250 to 500
Nc1nc(C(=O)Nc2cc(-c3ccc(CN4CCNCC4)nc3)ccc2Cl)co1 | 250 to 500
CN(C)CCCOc1ncc(-c2ccc(Cl)c(NC(=O)c3coc(N)n3)c2)s1 | < 100
Nc1nc(C(=O)Nc2cc(-c3ccc(OC4CCNCC4)nc3)ccc2Cl)co1 | 250 to 500
CNCCn1cc(-c2ccc(Cl)c(NC(=O)c3coc(N)n3)c2)cn1 | 100 to 250
CN(C)C1CCN(Cc2csc(-c3ccc(Cl)c(NC(=O)c4coc(N)n4)c3)n2)CC1 | 100 to 250
CNCCCn1cc(-c2ccc(Cl)c(NC(=O)c3coc(N)n3)c2)cn1 | < 100

Structure (SMILES) | EC50 [nM]
CN(C)CCCOc1ccc(-c2ccc(Cl)c(NC(=O)c3coc(N)n3)c2)cn1 | 100 to 250
CN(C)C1CCN(C(=O)Cn2cc(-c3ccc(Cl)c(NC(=O)c4coc(N)n4)c3)cn2)CC1 | 250 to 500
Nc1nc(C(=O)Nc2cc(-c3ccc(N4CCNCC4)cc3)ccc2Cl)co1 | 250 to 500
CN(C)CCCC(=O)N1CCC(n2cc(-c3ccc(Cl)c(NC(=O)c4coc(N)n4)c3)cn2)CC1 | 250 to 500
CN1CCN(CCCn2cc(-c3ccc(Cl)c(NC(=O)c4coc(N)n4)c3)cn2)CC1 | 100 to 250
Nc1nc(C(=O)Nc2cc(-c3ccc(CN4CC5CNCC5C4)nc3)ccc2Cl)co1 (configuration not stated) | 250 to 500
CN(C)CC(=O)N1CCC(n2cc(-c3ccc(Cl)c(NC(=O)c4coc(N)n4)c3)cn2)CC1 | 100 to 250
N#Cc1nn(C2CCNCC2)cc1-c1ccc(Cl)c(NC(=O)c2coc(N)n2)c1 | 100 to 250
CN1CCN(c2ccc(-c3ccc(Cl)c(NC(=O)c4coc(N)n4)c3)cn2)CC1 | 100 to 250
Nc1nc(C(=O)Nc2cc(-c3cnn(C4CCN(CCO)CC4)c3)ccc2Cl)co1 | 100 to 250
CC1CN(C(=O)Cn2cc(-c3ccc(Cl)c(NC(=O)c4coc(N)n4)c3)cn2)CCN1 (configuration not stated) | 250 to 500
CN(C)CCCn1cc(-c2ccc(Cl)c(NC(=O)c3coc(N)n3)c2)cn1 | 100 to 250
CN1CCC(NCc2ccc(-c3ccc(Cl)c(NC(=O)c4coc(N)n4)c3)cn2)CC1 | 100 to 250
Nc1nc(C(=O)Nc2cc(-c3cnn(C4CCNC4)c3)ccc2Cl)co1 (configuration not stated) | 100 to 250
Cc1nn(C2CCNCC2)cc1-c1ccc(Cl)c(NC(=O)c2coc(N)n2)c1 | 100 to 250
CNC1CCCN(Cc2ncc(-c3ccc(Cl)c(NC(=O)c4coc(N)n4)c3)s2)C1 (configuration not stated) | 100 to 250
Nc1nc(C(=O)Nc2cc(-c3cnn(CCN4CCNCC4)c3)ccc2Cl)co1 | 250 to 500
CNCC1CCN(Cc2ncc(-c3ccc(Cl)c(NC(=O)c4coc(N)n4)c3)s2)CC1 | < 100
CN(C)CCNC(=O)Cn1cc(-c2ccc(Cl)c(NC(=O)c3coc(N)n3)c2)cn1 | 250 to 500
Nc1nc(C(=O)Nc2cc(-c3cnn(CCCNC4CC4)c3)ccc2Cl)co1 | 100 to 250
CNC1CCC(n2cc(-c3ccc(Cl)c(NC(=O)c4coc(N)n4)c3)cn2)CC1 (mixture of isomers) | < 100
